Source: US20090291964A1, “Potentiators of Antibacterial Activity” (priority 2003, published 2009)
Read-outs that look alike come from different tables or passages of the source. Marks after values point to notes of the source that are not given here.

How the values were obtained:
Format in all cases: cell-based
S. aureus SA-1199B = assay: Minimal effective concentration (MEC) of EPI for gatifloxacin; details: for MEC: S. aureus SA-1199B (NorA overproducer), lowest amount of EPI which produces the maximum effect on the MIC of gatifloxacin
Method: (§1) The MEC was determined as the minimal concentration of EPI that produced the maximal reduction in substrate MIC.
(§2) Since any given compound may be recognized by an unknown number of efflux pumps in a particular organism, we reasoned that the MEC of A-106 and C-9 should vary for different antibiotics. Also, the MEC of A-106 and C-9 should vary with the degree of efflux expression in a given strain. […] This was confirmed with two other wild type strains, SA-8325-4 and SA-1199 (Table 3).
(§3) The MEC of A-106 and C-9 for gatifloxacin was determined in these efflux mutants. […] A similar result was obtained with efflux mutant K2068, where the MEC for A-106 was 6.25 μg/ml and the MEC for C-9 was 3.1 μg/ml. […] This may reflect that either gatifloxacin is recognized by fewer pumps than EtBr or it is a poorer efflux substrate in general. This is consistent with the finding that the activity of A-106 was non-saturable for EtBr but is saturable for gatifloxacin.

S. aureus K2068 = assay: as above; details: for MEC: S. aureus K2068 (nonNorA pump overproducer), lowest amount of EPI which produces the maximum effect on the MIC of gatifloxacin
Method: as §1, §2, §3

S. aureus ATCC 29213 = assay: as above; details: lowest amount of EPI which produces the maximum effect on the MIC of gatifloxacin
Method: as §1, §2

S. pneumoniae ATCC 10015 [1] = assay: MIC by NCCLS microdilution, EtBr/EPI with and without EPI; details: for MIC: Streptococcus pneumoniae, ATCC10015
Method: (§4) 3% sterile laked horse blood (Quad Five, Ryegate, Mont.) was added to assays for E. faecalis and S. Pneumoniae. A final concentration of 1% DMSO was present in all assays.
(§5) EtBr is a general substrate for many different efflux pumps in bacteria. Markham et al., “Multiple Novel Inhibitors of the NorA Multidrug Transporter of Staphylococcus aureus”, Antimicrob. Agents Chemother. 43:2404-2408 (1999). Since EtBr is a non-specific DNA intercalator, the only known mechanism of resistance to EtBr is via efflux. Markham et al., “Multiple Novel Inhibitors of the NorA Multidrug Transporter of Staphylococcus aureus”, Antimicrob. Agents Chemother. 43:2404-2408 (1999).

E. faecalis ATCC 29212 = assay: as above; details: for Fold-reduction in EtBr MIC / MIC: E. faecalis ATCC 29212; for MIC: Enterococcus faecalis, ATCC29212
Method: as §4, §5

S. pneumoniae ATCC 10015 [2] = assay: Minimal effective concentration (MEC) of EPI for EtBr; details: lowest amount of EPI which produces the maximum effect on the MIC of ethidium bromide (reserpine: maximal subinhibitory concentration)
Method: as §1
The minimum effective concentration (MEC) for inhibition of EtBr efflux was determined in S. aureus, E. faecalis and S. pneumoniae for A-106 and C-9; reserpine was used as a comparator (Table 1).

[3] = system: S. aureus SA-1199 (clinical isolate, susceptible); assay: MIC of fluoroquinolones with and without EPI; details: for MIC: Staphylococcus aureus, read-out: MIC of EtBr with EPI
Source text: (§6) A variety of strains may be used in these experiments, including, but not limited to, S. aureus ATCC 29213, E. faecalis ATCC 29212, and S. pneumoniae, S. aureus strains SA-1199, SA-1199B, SA-8325-4, and SA-K2068. S. aureus ATCC 29213, E. faecalis ATCC 29212, and S. pneumoniae ATCC 10015 were obtained from the American Type Culture Collection (Manassas, Va.). S. aureus strains SA-1199 (clinical isolate, susceptible), SA-1199B (SA-1199, NorA overproducing, also has A116E GrlA mutation), SA-8325-4 (NCTC 8325 cured of prophages), SA-K2068 (SA-8325-4, non-NorA multidrug efflux pump overproducing mutation) were obtained from Glenn Kaatz (Kaatz et al., “Identification and characterization of a novel efflux-related multidrug resistance phenotype in Staphylococcus aureus”, J. Antimicrob. Chemother. 50:833-838 (2002); 1993; Kaatz et al., “Phenothiazines and thioxanthenes inhibit multidrug efflux pump activity in Staphylococcus aureus”, Antimicrob. Agents Chemother. 47:719-726, Kaatz et al., “Efflux-mediated fluoroquinolone resistance in Staphylococcus aureus. Antimicrob. Agents Chemother.”, 37:1086-1094, 1993)).
as §4

S. aureus SA-8325-4 = assay: MIC of fluoroquinolones with and without EPI; details: for MIC: Staphylococcus aureus
Source text: as §6, §4

[4] = system: S. aureus SA-K2068 (non-NorA multidrug efflux pump overproducing); assay: microbe, parasite or virus in culture; details: for MIC: Staphylococcus aureus, read-out: MIC of EtBr with EPI; for Fold-reduction in MIC: gatifloxacin, S. aureus K2068 (nonNorA pump overproducer)
Source text: as §6, §4
Recent more hydrophobic fluoroquinolones such as gatifloxacin and moxifloxacin are less well recognized by NorA; however, recently one other pump in S. aureus has been described which also recognizes hydrophobic fluoroquinolones (Kaatz et al. 2002, supra). To investigate the potential of A-106 and C-9 to block the efflux of several fluoroquinolones in cells with constituitively over-expressed efflux pumps, we used S. aureus strains SA-1199B and K2068 (Table 3). […] Kaatz et al., “Phenothiazines and thioxanthenes inhibit multidrug efflux pump activity in Staphylococcus aureus”, Antimicrob. Agents Chemother. 47:719-726 (2003).

[5] = S. pneumoniae ATCC 10015, EPIs used at the MEC, except VX-710 at 100 μg/ml
[6] = S. pneumoniae ATCC 10015, EPI alone, read-out: MIC of EPI
[7] = S. pneumoniae ATCC 10015, EPIs used at the MEC, except VX-710 at 100 μg/ml, read-out: MIC of EtBr with EPI
[8] = EPIs used at the MEC, except VX-710 at 100 μg/ml
[9] = EPI alone, read-out: MIC of EPI
[10] = EPIs used at the MEC, except VX-710 at 100 μg/ml, read-out: MIC of EtBr with EPI
[11] = S. aureus SA-1199, EPI at 4X the MEC for EtBr, VX-710 at 100 μg/ml
[12] = S. aureus SA-8325-4, EPI at 4X the MEC for EtBr, VX-710 at 100 μg/ml
[13] = K2068, EPIs at 4 times MEC for EtBr, A-106 at 100 μg/ml
[14] = S. aureus K2068 (nonNorA pump overproducer) (Table 4)
[15] = S. aureus K2068, EPI at 4X the MEC for EtBr, VX-710 at 100 μg/ml

In the case of `COc1cc(C(=O)C(=O)N(C)[C@@H](Cc2ccc(Cl)cc2)C(=O)N(Cc2ccccc2)C(CCc2ccncc2)CCc2ccncc2)cc(OC)c1OC` [C-9, (S)—N-Benzyl-2-(methyl-(2-oxo-2-(3,4,5-trimethoxyphenyl)acetyl)amino)-3-(4-chloro-phenyl)-N-(3-pyridin-4-yl-1-(2-pyridin-4-yl-ethyl)propyl)propionamide], the MEC (S. aureus SA-1199B) was 3.1 µg/mL, the MEC for gatifloxacin (S. aureus SA-1199B; efflux mutant, strain not named in the sentence (SA-1199B by context)) was 3.1 µg/mL and the MEC (S. aureus K2068) was 3.1 µg/mL. The MEC for gatifloxacin (S. aureus K2068; efflux mutant K2068) was 3.1 µg/mL, the MEC (S. aureus ATCC 29213) was greater than 100 µg/mL and the “Fold-reduction in EtBr MIC” value (S. pneumoniae ATCC 10015 [1]; [5]) was 2. For the same compound, the MIC (S. pneumoniae ATCC 10015 [1]; [6]) was greater than 100 mg/L, the MIC (S. pneumoniae ATCC 10015 [1]; [7]) was 1 mg/L and the “intrinsic antibacterial activity of EPI” value (S. pneumoniae ATCC 10015 [1]; at 100 μg/ml, S. pneumoniae) was “no intrinsic antibacterial activity”. For the same compound, the “Fold-reduction in EtBr MIC” value (E. faecalis ATCC 29212; [8]) was 2, the MIC (E. faecalis ATCC 29212; [9]) was greater than 100 mg/L and the MIC (E. faecalis ATCC 29212; [10]) was 3.1 mg/L. The “intrinsic antibacterial activity of EPI” value (E. faecalis ATCC 29212; at 100 μg/ml, E. faecalis) was “no intrinsic antibacterial activity”, the “MEC of EPI” value (S. pneumoniae ATCC 10015 [2]) was 12.5 µg/mL and the “MIC of ciprofloxacin with EPI” value [3, 11] was 0.125 mg/L. The “MIC of gatifloxacin with EPI” value [3, 11] was 0.063 mg/L, the “MIC of gentamicin with EPI” value [3, 11] was 0.125 mg/L and the “MIC of levofloxacin with EPI” value [3, 11] was 0.125 mg/L. The “MIC of norfloxacin with EPI” value [3, 11] was 0.25 mg/L, the MIC [3] was 1.6 mg/L and the “MIC of ciprofloxacin with EPI” value (S. aureus SA-8325-4; [12]) was 0.125 mg/L. The “MIC of gatifloxacin with EPI” value (S. aureus SA-8325-4; [12]) was 0.125 mg/L, the “MIC of gentamicin with EPI” value (S. aureus SA-8325-4; [12]) was 0.063 mg/L and the “MIC of levofloxacin with EPI” value (S. aureus SA-8325-4; [12]) was 0.25 mg/L. The “MIC of norfloxacin with EPI” value (S. aureus SA-8325-4; [12]) was 0.25 mg/L, the MIC (S. aureus SA-8325-4; SA83254, read-out: MIC of EtBr with EPI) was 0.8 mg/L and the “reduction of MIC of ciprofloxacin” value [4, 13] was 8 fold. For the same compound, the “reduction of MIC of gatifloxacin” value [4, 13] was 4 fold, the “reduction of MIC of levofloxacin” value [4, 13] was 2 fold and the “reduction of MIC of norfloxacin” value [4, 13] was 8 fold. The “MIC of gatifloxacin with EPI” value [4, 14] was 0.5 mg/L, the “MIC of ciprofloxacin with EPI” value [4, 15] was 1 mg/L and the “MIC of gatifloxacin with EPI” value [4, 15] was 0.5 mg/L. The “MIC of gentamicin with EPI” value [4, 15] was 0.063 mg/L, the “MIC of levofloxacin with EPI” value [4, 15] was 0.5 mg/L and the “MIC of norfloxacin with EPI” value [4, 15] was 4 mg/L. The MIC [4] was 3.1 mg/L and the “Fold-reduction in MIC” value [4] was 2.

`COC(=O)[C@H]1[C@H]2C[C@@H]3c4[nH]c5cc(OC)ccc5c4CCN3C[C@H]2C[C@@H](OC(=O)c2cc(OC)c(OC)c(OC)c2)[C@@H]1OC` [reserpine, reference compound] was tested, and the MEC (S. aureus SA-1199B) was 25 µg/mL, the MEC (S. aureus K2068) was 3.1 µg/mL and the MEC (S. aureus ATCC 29213) was greater than 100 µg/mL. For the same compound, the “Fold-reduction in EtBr MIC” value (S. pneumoniae ATCC 10015 [1]; [5]) was 50, the “reduction in the MIC of EtBr” value (S. pneumoniae ATCC 10015 [1]; S. pneumoniae, reserpine 25 μg/ml (maximal subinhibitory concentration)) was 50 fold and the MIC (S. pneumoniae ATCC 10015 [1]; [6]) was 50 mg/L. The MIC (S. pneumoniae ATCC 10015 [1]; [7]) was 0.04 mg/L, the MIC (S. pneumoniae ATCC 10015 [1]; S. pneumoniae, read-out: MIC of EPI alone) was 50 mg/L and the “Fold-reduction in EtBr MIC” value (E. faecalis ATCC 29212; [8]) was 8. For the same compound, the MIC (E. faecalis ATCC 29212; [9]) was greater than 100 mg/L, the MIC (E. faecalis ATCC 29212; [10]) was 0.8 mg/L and the “MEC of EPI” value (S. pneumoniae ATCC 10015 [2]) was 25^c μg/ml. The “MIC of ciprofloxacin with EPI” value [3, 11] was 0.063 mg/L, the “MIC of gatifloxacin with EPI” value [3, 11] was 0.063 mg/L and the “MIC of gentamicin with EPI” value [3, 11] was 0.125 mg/L. For the same compound, the “MIC of levofloxacin with EPI” value [3, 11] was 0.125 mg/L, the “MIC of norfloxacin with EPI” value [3, 11] was 0.125 mg/L and the MIC [3, 11] was 0.4 mg/L. For the same compound, the “MIC of ciprofloxacin with EPI” value (S. aureus SA-8325-4; [12]) was 0.125 mg/L, the “MIC of gatifloxacin with EPI” value (S. aureus SA-8325-4; [12]) was 0.125 mg/L and the “MIC of gentamicin with EPI” value (S. aureus SA-8325-4; [12]) was 0.063 mg/L. For the same compound, the “MIC of levofloxacin with EPI” value (S. aureus SA-8325-4; [12]) was 0.25 mg/L, the “MIC of norfloxacin with EPI” value (S. aureus SA-8325-4; [12]) was 0.25 mg/L and the MIC (S. aureus SA-8325-4; SA83254, S. aureus SA-8325-4, EPI at 4X the MEC for EtBr, VX-710 at 100 μg/ml, read-out: MIC of EtBr with EPI) was 0.4 mg/L. For the same compound, the “MIC of gatifloxacin with EPI” value [4, 14] was 0.25 mg/L, the “MIC of ciprofloxacin with EPI” value [4, 15] was 0.5 mg/L and the “MIC of gatifloxacin with EPI” value [4, 15] was 0.25 mg/L. The “MIC of gentamicin with EPI” value [4, 15] was 0.063 mg/L, the “MIC of levofloxacin with EPI” value [4, 15] was 0.5 mg/L and the “MIC of norfloxacin with EPI” value [4, 15] was 1 mg/L. The MIC [4] was 1.6 mg/L and the “Fold-reduction in MIC” value [4] was 4.
